“Also recorded” adds a separate entry of the source. Read-outs that look alike come from different tables or passages of the source.
How the values were obtained:
[1] = test system: PC3 prostate cancer cell line; test: Cell proliferation assay, live imaging (Incucyte), PC3; assay type: cell-based
Description: Growth curve was monitored at 37° C. in a CO2 incubator by using time lapse imaging with Incucyte (Essen Biosciences) for up to 150 h after plating the cells (t=o) at a density of 25-100 k cells per well in a 6 well plate (Nunc). MPRCs were added at the stated concentrations 24 h after cell plating;
A live imaging system (Incucyte, EssenBiosciences) was used to measure the effect of K^+ channel inhibitors on the rate of cell proliferation. PC3 cells were plated on 6 well plates (Nunc) in 3 ml culture medium (Wang et al (2010) PLoS ONE 5, e10456); K^+ channel inhibitors were added to the wells at 0-15 mM. The plates were placed in Incucyte in a standard cell culture incubator at 37° C. and CO2. Each well was imaged at an interval of up to 4 h and rate of cell proliferation was calculated from these images using Incucyte software.

[2] = test system: Wnt induced calcium release; test: Wnt induced [Ca2+]i release after preincubation with thapsigargin or membrane potential regulating compounds; assay type: cell-based
Description: The imaging protocol was developed in the inventor's laboratory and has been described in detail, elsewhere (Wang at al., (2010) PLoS ONE 5, e10456). Briefly, 100000-200000 PC3, MCF7, 253J or Cos 7 cells were plated on 35 mm FluoroDish (WPI) and grown for 48 h; calcium indicators Fluo-4 (Invitrogen) and FuraRed (Invitrogen) at 1 ng/ml were added to FluoroDish containing only 1 ml of culture medium and incubated for 15-20 min at 37° C. The culture medium was removed and washed (×2) and replaced with 1 ml PBS. Live cell calcium Imaging was performed on an Olympus FluoView FV 1000 confocal microscope (Olympus KeyMed) equipped with a 20× dry objective (numerical aperture=0.75). Calcium indicators were excited with an argon laser line (488 nm) and emissions recorded in the green channel (500-560 nm) for Fluo-4 and red channel (600-700 nm) for FuraRed after addition of vehicle control (PBS) or Wnt X (30-600 ng/ml). Images were acquired every 1.1 or 2.2 seconds for up to 600-800s; image and data acquisition was performed using FluoView 1000 software (Olympus, UK). Fluorescent intensity was measured and data exported as a tab delimited file for further analysis using a spreadsheet. All imaging experiments were performed in duplicate; intracellular calcium at 100 ng/ml was measured in at least 3-12 different passages (passage numbers 25 to 37) of cell line for each Wnt ligand. Wnt 11 was tested in at least 5 different passages at 3 different concentrations. […]
To measure the effect of changes in membrane potential on [Ca^2+]i release using the protocol described above, in some experiments, external solution (PBS) was substituted with varying concentrations of KCl. In other experiments chemical inhibitors of K^+ channels such as TEA, CsCl or tolbutamide (Sigma-Aldrich) were added to the cells grown on FluoroDish, at 37° C., at least 5 min prior to addition of Wnt ligands.
After image acquisition, regions of interest (ROI) were drawn over individual PC3 cells (up to 25) in a single frame and calcium intensity measurements were made using FluoView 1000 software (Olympus, UK). The measurements were exported as a tab delimited file into a spreadsheet for further analysis and Fluo4/Fura Red ratios were calculated. The waveform, a product of the ratio of Fluo4 and FuraRed over the period of measurement was used to measure the kinetics of the activation of [Ca^2+]i release in PC3 cells, in response to different Wnt ligands. The time constants (rise, dwell and fall times) were calculated by first fitting the Fluo4/FuraRed ratio to a single Gaussian function (Origin Lab Corp., MA); a lower (10%) and upper (90%) amplitude thresholding method was then used to calculate the time constants (s). Statistical significance was calculated using Mann Whitney U test.

[3] = test system: β-catenin translocation to the nucleus; test: β-catenin immunocytochemistry and nuclear co-localization analysis, PC3; assay type: cell-based; details: PC3 cells, K+ channel inhibitors 1-15 mM, Wnt5A and 9B
Description: Immunostaining was performed in two different laboratories, independently with the experimenter blind to the identity of the treatment. Either cells used in FluoroDish, post [Ca^2+]i experiments using dyes (see above) or grown in 8 well chamber glass slides (Lab Tek II, Nunc) were used. For Wnt ligand treatment, the culture medium replaced with PBS (without calcium) at 37° C. The experiments were replicated for Wnt ligand or vehicle control as described for [Ca^2+]i measurements. Briefly, Wnt ligands were added and chamber slides incubated at 37° C. for up to 20 min. Chamber wells were washed 3× with 0.5 ml PBS and cells were fixed with 0.5 ml 4% formalin for 30 min at 4° C. Cells were washed 3× with ice cold PBS and stored in 0.5 ml PBS at 4° C. for immunostaining. In some experiments PC3 cells were treated with thaspsigargin as described above.
For immunostaining cells were washed twice for 5 minutes in TBST (20 mM Tris pH 7.4, 0.9% NaCl, 0.1% Tween 20, Sigma). Cells were then incubated in 20% normal goat serum (NGS)/TBST for 30 min at room temperature, the chambers were drained and cells were incubated with mouse anti-β-catenin (ab22656, Abcam, UK) at 1:500 dilution in NGS/TBST overnight at 4° C. Following two further 5 min washes in TBST sections were incubated in goat anti-mouse peroxidase fab (Abcam, UK) at 1:500 dilution for 30 min at room temperature. Following a further two 5 min washes in TBST cells were incubated with tyramide Cy3 (Perkin Elmer) for 10 min at room temperature. Sections were washed twice for 5 min in TBST before nuclear counterstaining with DAPI. After a final two 5 min washes, the chambers were removed and cover slip placed on slides using Permafluor (Thermo Shandon).
Fluorescence immunocytochemical staining for β-catenin expression in cell lines was imaged using Olympus Fluoview 1000 Confocal Microscope (Olympus KeyMed) mounted on an Olympus IX81 inverted microscope using a 20×0.7 NA or 40×1.0 NA dry objective with a zoom of ×3.4′,6-diamidino-2-phenylindole (DAPI, nuclear counterstain) was excited at 405 nm with an emission of 415-500 nm; Cy3 (β-catenin label) signal was excited at 561 nm with an emission spectrum between 570-670 nm. […] Z-stacks of at least 3 fields per sample were imaged and saved in Olympus FV (OIF or OIB) file format.
Nuclear co-localization of β-catenin was calculated by importing FV files for untreated, control or treated cells, into colocalization plugin of Fiji software (http://fiji.sc/Fiji) for Cy3 (β-catenin) and DAPI (nuclear) signals. Pearson co-relation of colocalization were tabulated for 25-90 cells (from 2-5 different passages of cells) using ROI analysis. Statistical significance between untreated and treated cells was calculated using Mann Whitney U test.

[4] = test system: MCF7 breast cancer cell line; test: Cell growth, time lapse imaging (Incucyte), MCF7; assay type: cell-based, human; details: MCF7 cells, nicorandil shown as an example
Description: Growth curve was monitored at 37° C. in a CO2 incubator by using time lapse imaging with Incucyte (Essen Biosciences) for up to 150 h after plating the cells (t=o) at a density of 25-100 k cells per well in a 6 well plate (Nunc). MPRCs were added at the stated concentrations 24 h after cell plating.

[5] = PC3 cells, inhibitors at 0-15 mM
[6] = preincubation 5 min, Wnt 9B 0.1 μg/ml as example, CsCl 5 mM, CdCl2 1 mM, TEA 10 mM, Amiodarone 75 μM, Tolbutamide 1 mM, Isradipine 100 μM, Nifedipine 1 mM, Minoxidil 25 μM, Atenolol 37.5 μM, Propanolol 50 μM, Furosemide 150 μM

Structure (SMILES): CC[N+](CC)(CC)CC [TEA, tetraethylammonium]
- rate of cell proliferation (confluence of cell growth, FIG. 12) [1]: inhibit proliferation
- Wnt induced [Ca2+]i release after pre-incubation with K+ channel blocker (FIG. 11) [2]: reduced; also recorded: abolished
- Wnt ligand induced calcium release after preincubation with MPRC (FIG. 16) [2]: inhibited
- Wnt mediated β-catenin stabilization and translocation to the nucleus (FIG. 11) [3]: reduced; also recorded: biggest reduction

Structure (SMILES): O=C(NCCO[N+](=O)[O-])c1cccnc1 [Nicorandil]
- cell proliferation (FIG. 22 C) ([1]; PC3 cells, Incucyte, nicorandil shown as an example): do not inhibit
- Wnt signaling measured using intracellular calcium release (FIG. 22 A and B) [2]: do not inhibit
- cell proliferation (FIG. 22 D) [4]: do not inhibit

Structure (SMILES): CCCCNC(=O)NS(=O)(=O)c1ccc(C)cc1 [Tolbutamide]
- rate of cell proliferation (confluence of cell growth, FIG. 12) [1, 5]: inhibit proliferation
- rate of cell proliferation (confluence of cell growth, FIG. 12) ([1]; PC3 cells, inhibitors at 0-15 mM, listed as tolbutamide): inhibition
- Wnt ligand induced calcium release after preincubation with MPRC (FIG. 16) [2, 6]: inhibited
- Wnt mediated β-catenin stabilization and translocation to the nucleus (FIG. 11) [3]: reduced; also recorded: inhibition

Structure (SMILES): [Cl-].[Cs+] [CsCl]
- rate of cell proliferation (confluence of cell growth, FIG. 12) [1, 5]: inhibit proliferation
- Wnt ligand induced calcium release after preincubation with MPRC (FIG. 16) [2, 6]: inhibited
- Wnt mediated β-catenin stabilization and translocation to the nucleus (FIG. 11) [3]: reduced

Structure (SMILES): COC(=O)C1=C(C)NC(C)=C(C(=O)OC(C)C)C1c1cccc2nonc12 (centres unmarked) [Isradipine]
- Wnt ligand induced calcium release after preincubation with MPRC (FIG. 16) [2, 6]: inhibited

Structure (SMILES): CC(C)NCC(O)COc1cccc2ccccc12 (centres unmarked) [Propanolol]
- Wnt ligand induced calcium release after preincubation with MPRC (FIG. 16) [2, 6]: inhibited

Structure (SMILES): [Cl][Cd][Cl] [CdCl2]
- Wnt ligand induced calcium release after preincubation with MPRC (FIG. 16) [2, 6]: inhibited
